The subject of one assay is DSS colitis. Briefly: DSS colitis with fluconazole in the drinking water (anti-fungal therapy). The class given is in vivo, mouse. The conditions noted are these: Clec7a−/− mice; for weight loss during colitis: fluconazole 0.5 mg/ml in drinking water for 14 days starting 2 days prior to DSS, 2.5% DSS 7 days, effect from day 9 (p<0.05). As to the method: WT and Clec7a−/− mice were cohoused for three weeks prior the experiments. Alternatively, WT and Clec7a−/− littermates were used where indicated. For the induction of colitis, mice were given drinking water supplemented with 2.5% (w/v) Dextran sulphate sodium (DSS, MP Biomedicals, LLC, Aurora, Ohio) for 7 days and sacrificed at day 12. For ablation of intestinal fungi, mice were given Fluconazole (0.5 mg/ml, Sigma) in the drinking water for total of 14 days starting 2 days prior the induction of DSS colitis. In some experiments, prior and upon colitis induction, mice were supplemented every other day with four doses (1×108 yeast/mouse/dose) of Candida tropicalis or Saccharomycopsis fibuligera as shown in FIG. 19. Body weight, gross blood, and stool consistency were analyzed on a daily basis. Paraffin embedded colon tissues were sectioned and stained with H&E for pathology assessment. Assessment of the severity of colitis was measured by the disease activity index (DAI) as previously described.
LI-LP lymphocytes were isolated as previously described with some modifications. Briefly, colons were isolated, opened longitudinally, washed of fecal contents and then cut into 1 cm pieces. Intestinal pieces were transferred into HBSS medium (Sigma), supplemented with 5% fetal bovine serum (FBS) and 2 mM EDTA, and were shaken for 15 min at 37° C. The suspensions were filtered through a mesh and the filtrate containing the mucosa and mucosa associated microflora was used further for DNA isolation. The remaining tissue was washed, cut in small pieces and subsequently incubated in digestion medium consisting of RPMI 1640, 5% FBS, 0.5 mg/ml collagenase type VIII (Sigma), 5 U/ml DNase (Roche Diagnostics), 100 IU/ml penicillin and 100 μg/ml streptomycin for 30 min at 37° C. by gentle shaking. The cell suspensions were filtered through a mesh, and then centrifuged at 1300 rpm. Cell suspensions were cultured overnight and TNF-α production by colonic cells was measured by ELISA (BioLegend, San Diego, Calif.).
Cell suspensions were prepared from MLNs and the LI-LP as described above. Cells were incubated with 50 ng/ml phorbol 12-myristate 13-acetate (PMA; Sigma-Aldrich), 500 ng/ml ionomycin (Sigma-Aldrich) and 10 μg/ml Brefeldin A (BFA; Sigma-Aldrich) in complete RPMI media at 37° C. for 6 h. After surface staining with CD4, cells were permeabilized and intracellular cytokine staining was performed using APC-labeled anti-IFN-γ mAb (XMG1.2; BD Biosciences) and PE-labeled anti-IL-17 mAb (TC11-18H10; BD Biosciences) according to the manufacturer's instructions. Flow cytometry was performed using a LSRII (BD Biosciences) and data were analyzed with FlowJo software (TreeStar Inc.).
For detection of cytokines by ELISA, MLN cells and LI-LP lymphocytes were stimulated with 10 μg/ml plate bound anti-CD3 and anti-CD28 antibodies (BioLegend, San Diego, Calif.). Supernatants were collected after 36 hrs and analyzed for IFN-γ and IL-17 production by ELISA (BioLegend, San Diego, Calif.).
Tissue samples from the proximal and distal colon were isolated and homogenized. RNA was isolated by using RNeasy Mini Kit (Qiagen) and reverse transcribed. Real-time RT-PCR analyses were done on the Applied Biosystems 7500 Fast Real-Time PCR System with the SYBR Green PCR kit as instructed by the manufacturer (Applied Biosystems). […] Samples were analyzed for gene expression using the following primers: […]

For another assay, the system named is intestinal fungi. Kind of assay: Depletion of intestinal fungi by fluconazole, colon sections stained with sDEC-1. The class given is in vivo, mouse. The conditions noted are these: mice treated with fluconazole 0.5 mg/ml in drinking water for 2 weeks; sDEC-1 staining of colon sections. As for the experimental part: OCT-embedded intestinal specimens were sectioned, mounted on microscope slides and then incubated for 40 min in PBS containing 2% FCS. Murine soluble Dectin-1 (sDec-1) was generated and biotin-labeled as previously described. sDec-1 (10 μg/ml) was fluorescently labeled with streptavidin-Alexa 647 (2 μg/ml, Invitrogen) (sDec-1-Alexa647), and intestinal sections were stained for 1 hr. To block Dectin-1 interaction. sDec-1-Alexa647 was incubated with 1 μg/ml laminarin (soluble β-glucan from Laminaria digitata, Sigma) and intestinal sections were stained as previously described. Alternatively, intestinal sections were stained with FITC conjugated rabbit anti-Candida polyclonal antibody (Meridian Life Science, Cincinnati, Ohio). […] Therefore throughout this study we have referred to the antibody as an “anti-fungal antibody”. Slides were rinsed with PBS and stained for 5 min with 0.1 μg/ml 4′,6-diamidino-2-phenylindole (DAPI, Invitrogen) and overlaid with mounting medium (Vectashield; Vector, Burlingame, Calif.). Slides were examined using a Zeiss Axio Observer Fluorescence microscope. All compared images were collected and processed identically. Colons from Fluconazole (0.5 mg/ml for 2 weeks in the drinking water) treated mice were used in control staining.

Setting [1] is: fluconazole in drinking water, DSS colitis.

Entries after “also recorded” stand apart in the source; their conditions may differ.

Consider `OC(Cn1cncn1)(Cn1cncn1)c1ccc(F)cc1F` [fluconazole], for which the “weight loss during colitis” value with DSS colitis is listed as “reduced weight loss”. The “weight loss during colitis” value in the assay with DSS colitis (listed as Fluconazole) is on record as “significantly abrogated weight loss”. Further, in the assay on DSS colitis (fluconazole in drinking water for 14 days starting 2 days prior to DSS), the colitis overall entry is listed as “ameliorates colitis”. Further, in the assay on DSS colitis (fluconazole in drinking water, 4 days after the 7 days of DSS), the “histological disease characteristics (histology score)” value is listed as “milder histological disease characteristics”. Moreover, in the assay with DSS colitis (setting [1]), the “Th1 and Th17 responses (IL-17 and IFN-γ producing CD4+ T cells in LI-LP, production in MLNs)” value was “decreased Th1 and Th17 responses”; the “production of inflammatory cytokines in the colon” value is listed as “decreased production of inflammatory cytokines”. The “presence of fungi in the intestine” value with intestinal fungi is reported as “substantially reduces the presence of fungi; also recorded: suppressed fungal growth”.

The record behind these values is patent US9782389B2, “Fungal mycobiome as probiotics, diagnostics and therapeutics” (Cedars-Sinai Medical Center, priority 2012, dated 2017).
